Test results: patent US12699083B2, “Device for continuous measurement of cardiac activity” (The Hospital for Sick Children, priority 2018, dated 2026)

Experiments:
[1] = test system: hiPSC-CM monolayers; test: Drug test on hiPSC-CM monolayers cultured on CNT-PDMS device arrays (contractile stress, beating rate, beating rhythm from CNT sensor resistance); assay type: cell-based, human
Description: Once after hiPSC-CMs were seeded, the device array 10 was placed in a humidified 37° C. incubator with 5% CO2, and the electrical signal of the CNT sensors started to be recorded. A constant voltage of 2.5 V was applied to the CNT-PDMS sensors, and sensor signals were recorded with a sampling frequency of 10 Hz.
Drug stocks were kept at 4° C. prior to use. Drug tests were performed on hiPSC-CM monolayers during culture days between 10 and 14. […] After each drug addition, cells were incubated for 10 hours for each dose before CNT sensor signals were recorded to reflect the drug effect.
Each set of data was from 3 to 6 experiment repeats and presented as values of the mean and the standard error of the mean. For differential analysis, all statistics of recorded data was processed using Student's t-test with levels of 0.05, 0.1 when they were compared to the control group. All data sets passed Shapiro-Wilk normality tests and equal variance tests.
The contractile stress generated by cardiomyocytes monolayer during synchronous systole was calculated from the experimentally measured data (i.e., CNT sensor's electrical resistance change).

[2] = test system: single hiPSC-CM; conditions: 0.1 μM of OM, TFFB; cited from earlier work

With `COc1ccc(CCN(C)CCCC(C#N)(c2ccc(OC)c(OC)c2)C(C)C)cc1OC` (centres unmarked) [Verapamil] the contractile stress ([1]; 0.20 μM Verapamil, n=3, before 2.34±9.31×10^−2 kPa) was 1.15±1.31×10^−1 kPa.

`Cc1cccc(CCN2CCC(C(=O)c3ccc(NS(C)(=O)=O)cc3)CC2)n1` [E-4031] gave a contractile stress ([1]; 0.10 μM E-4031, n=3) of 2.47±0.48 kPa and a contractile stress ([1]; 0.60 μM E-4031, n=3, p>0.1) of 2.39±1.38 kPa.

For `CC(C)NCC(O)c1ccc(O)c(O)c1` (centres unmarked) [Isoproterenol], the “beating rate increased by” value ([1]; 2.00 μM isoproterenol) was 13.6%, the “Contractile stress increased by” value ([1]; 2.00 μM isoproterenol vs control) was 69.4% and the beating rate ([1]; 2.00 μM isoproterenol, n=3, p<0.05, control 1.17±0.068 Hz) was 1.33±0.081 Hz. The contractile stress ([1]; 2.00 μM isoproterenol, n=3, control 2.34±0.093 kPa) was 3.963±0.532 kPa.

Molecule `COc1cc2c(cc1OC)CC(=O)N(CCCN(C)C[C@H]1Cc3cc(OC)c(OC)cc31)CC2` [Ivabradine] has a beating rate ([1]; 10.00 μM Ivabradine, n=3, p<0.05, before 1.16±0.32 Hz) of 0.81±0.30 Hz and a contractile stress ([1]; 10.00 μM Ivabradine, n=3, p>0.1, before 2.26±0.43 kPa) of 2.00±0.68 kPa.

In the case of `COC(=O)N1CCN(Cc2cccc(NC(=O)Nc3ccc(C)nc3)c2F)CC1` [OM, Omecamtiv mecarbil], the “contractile stress increase by” value ([1]; 20 nM (0.02 μM) OM) is reported as 76%, the contractile stress ([1]; 20 nM (0.02 μM) OM, n=3, p<0.05, before 2.25±0.11 kPa) is reported as 3.96±0.40 kPa and the “amplitude of ΔR/R0” value ([1]; 20 nM OM, n=3, p<0.05, before 1.69×10^−2±8.46×10^−4) is reported as 2.98×10^−2±2.97×10^−3. For the same molecule, the beating rate ([1]; 20 nM OM, n=3, p>0.1, control 1.11±0.25 Hz) was 1.13±0.31 Hz and the “Contractility generated by a single cardiomyocyte increased by” value [2] was 16.7%.
